US20240166663A1, “NOVEL PYRIMIDINE DERIVATIVE SHOWING INHIBITION EFFECT ON GROWTH OF CANCER CELLS” (ONCOBIX CO., LTD., priority 2021, published 2024)

These compounds were tested against EXON 20 Insertion(NPG) Ba/F3 Cell (Homo sapiens, UniProt P00533, INS772GNP, cells depend on it) (assay: Measurement of cancer cell growth inhibitory effect (MTT assay)). Details: Ba/F3 cells expressing EGFR with NPG added at D770_N771, 72 hours treatment, read at 595 nm, read-out: EXON 20 Insertion(NPG) Ba/F3 Cell(IC50).
Sequence of EXON 20 Insertion(NPG) Ba/F3 Cell (P00533 with tags, fused parts or gaps INS772GNP): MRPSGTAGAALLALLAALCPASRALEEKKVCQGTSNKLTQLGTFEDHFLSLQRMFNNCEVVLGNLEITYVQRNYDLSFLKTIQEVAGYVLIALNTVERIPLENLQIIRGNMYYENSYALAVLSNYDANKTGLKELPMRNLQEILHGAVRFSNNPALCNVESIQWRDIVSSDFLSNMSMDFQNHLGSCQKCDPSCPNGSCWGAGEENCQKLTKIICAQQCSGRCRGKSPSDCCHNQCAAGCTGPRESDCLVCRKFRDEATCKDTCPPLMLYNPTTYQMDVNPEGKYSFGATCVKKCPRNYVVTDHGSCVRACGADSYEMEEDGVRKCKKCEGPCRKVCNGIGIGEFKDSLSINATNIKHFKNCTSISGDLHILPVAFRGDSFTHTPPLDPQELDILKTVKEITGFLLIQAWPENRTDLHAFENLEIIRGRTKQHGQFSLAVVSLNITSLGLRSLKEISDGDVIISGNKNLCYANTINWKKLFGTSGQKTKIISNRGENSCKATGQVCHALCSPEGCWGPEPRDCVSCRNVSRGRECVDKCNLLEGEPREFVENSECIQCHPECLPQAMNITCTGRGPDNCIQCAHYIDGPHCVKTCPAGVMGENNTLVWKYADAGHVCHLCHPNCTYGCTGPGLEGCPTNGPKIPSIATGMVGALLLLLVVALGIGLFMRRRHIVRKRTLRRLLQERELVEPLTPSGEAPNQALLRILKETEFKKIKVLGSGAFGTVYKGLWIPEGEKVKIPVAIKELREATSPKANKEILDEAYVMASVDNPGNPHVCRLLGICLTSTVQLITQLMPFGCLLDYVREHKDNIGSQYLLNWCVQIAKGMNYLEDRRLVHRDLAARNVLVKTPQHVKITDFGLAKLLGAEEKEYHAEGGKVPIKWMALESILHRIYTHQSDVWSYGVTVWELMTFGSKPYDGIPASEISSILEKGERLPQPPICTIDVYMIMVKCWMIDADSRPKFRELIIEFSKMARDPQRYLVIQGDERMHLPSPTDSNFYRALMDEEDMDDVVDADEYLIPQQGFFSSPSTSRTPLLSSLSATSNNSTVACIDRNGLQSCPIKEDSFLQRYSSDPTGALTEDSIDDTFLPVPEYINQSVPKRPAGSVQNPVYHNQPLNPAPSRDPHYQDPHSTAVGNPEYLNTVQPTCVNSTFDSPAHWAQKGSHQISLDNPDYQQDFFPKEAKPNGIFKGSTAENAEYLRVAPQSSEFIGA
Type: cell-based, Murine
Excerpt: Since there is no commercially available lung cancer cell line with EGFR insertion mutation, a method of inserting 3 to 4 amino acids at each site using site direct mutagenesis in a wild type EGFR expression vector was attempted. In the present invention, first, a vector with three amino acids of NPG added to the D770_N771 site with the highest frequency was used, and Ba/F3 cell line was used for expression of these genes.
When the oncogenic mutant EGFR is expressed, dependence on the mutant EGFR for cell growth and apoptosis occurs without IL-3. Therefore, substances that show effective inhibition of mutant EGFR suppress cell growth and induce apoptosis, so the anticancer effect of cells was analyzed through MTT assay.
1×10^4 cells of the previously constructed stable cells were put into a 96 well plate and incubated overnight, and then the compound of Example was dose dependently treated. After 72 hours, MTT reagent was added, and after 3 hours stop buffer (10% SDS) was added. After 24 hours of incubation, the results were analyzed by reading at 595 nm. […] As a control drug, Mobocertinib was used.

| SMILES | GI50 [nM] |
| --- | --- |
| C=CC(=O)Nc1cc(Nc2cc(Nc3ccccc3-c3ccn(C)n3)ncn2)c(OC2CC2)cc1N(C)CCN(C)C [Example 12, N-(4-cyclopropoxy-2-((2-(dimethylamino)ethyl)(methyl)amino)-5-((6-((2-(1-methyl-1H-pyrazol-3-yl)phenyl)amino)pyrimidin-4-yl)amino)phenyl)acrylamide] | 25 to 50 |
| C=CC(=O)Nc1cc(Nc2cc(Nc3ccccc3-c3ccn(C)n3)ncn2)c(OCC)cc1N(C)CCN(C)C [Example 11] | 25 to 50 |
| C=CC(=O)Nc1cc(Nc2ncc(C(=O)OCC)c(Nc3ccccc3-n3cccn3)n2)c(OC)cc1N(C)CCN(C)C [Example 21, ethyl 4-((2-(1H-pyrazol-1-yl)phenyl)amino)-2-((5-acrylamido-4-((2-(dimethylamino)ethyl)(methyl)amino)-2-methoxyphenyl)amino)pyrimidin-5-carboxylate] | 25 to 50 |
| C=CC(=O)Nc1cc(Nc2ncc(C(=O)OC(C)C)c(Nc3ccccc3-n3cccn3)n2)c(OC)cc1N(C)CCN(C)C [Example 17, Isopropyl 4-((2-(1H-pyrazol-1-yl)phenyl)amino)-2-((5-acrylamido-4-((2-(dimethylamino)ethyl)(methyl)amino)-2-methoxyphenyl)amino)pyrimidin-5-carboxylate] | < 25 |
| C=CC(=O)Nc1cc(Nc2ncc(C(=O)OC)c(Nc3ccccc3-n3cccn3)n2)c(OC)cc1N(C)CCN(C)C [Example 19, methyl 4-((2-(1H-pyrazol-1-yl)phenyl)amino)-2-((5-acrylamido-4-((2-(dimethylamino)ethyl)(methyl)amino)-2-methoxyphenyl)amino)pyrimidin-5-carboxylate] | 25 to 50 |
| C=CC(=O)Nc1cc(Nc2ncc(C(=O)OC(C)C)c(Nc3ccccc3-c3ccn(C)n3)n2)c(OC)cc1N(C)CCN(C)C [Example 16, Isopropyl 2-((5-acrylamido-4-((2-(dimethylamino)ethyl)(methyl)amino)-2-methoxyphenyl)amino)-4-((2-(1-methyl-1H-pyrazol-3-yl)phenyl)amino)pyrimidin-5-carboxylate] | < 25 |
| C=CC(=O)Nc1cc(Nc2cc(Nc3ccccc3-n3cccn3)ncn2)c(OC)cc1N(C)CCN(C)C [Example 2, N-(5-((6-((2-(1H-pyrazol-1-yl)phenyl)amino)pyrimidin-4-yl)amino)-2-((2-(dimethylamino)ethyl)(methyl)amino)-4-methoxyphenyl)acrylamide] | < 25 |
| C=CC(=O)Nc1cc(Nc2cc(Nc3ccccc3-n3cccn3)ncn2)c(OC)cc1N1C2CCC1COC2 [Example 39, N-(5-((6-((2-(1H-pyrazol-1-yl)phenyl)amino)pyrimidin-4-yl)amino)-2-(3-oxa-8-azabicyclo[3.2.1]octan-8-yl)-4-methoxyphenyl)acrylamide] | 25 to 50 |
| C=CC(=O)Nc1cc(Nc2ncc(C)c(Nc3ccccc3-n3cccn3)n2)c(OC)cc1N(C)CCN(C)C [Example 14, N-(5-((4-((2-(1H-pyrazol-1-yl)phenyl)amino)-5-methylpyrimidin-2-yl)amino)-2-((2-(dimethylamino)ethyl)(methyl)amino)-4-methoxyphenyl)acrylamide] | 25 to 50 |
| C=CC(=O)Nc1cc(Nc2cc(Nc3ccccc3-n3cccn3)ncn2)c(OC)cc1N1CC2COCC2C1 (stereo not shown) [Example 38, N-(5-((6-((2-(1H-pyrazol-1-yl)phenyl)amino)pyrimidin-4-yl)amino)-4-methoxy-2-(tetrahydro-1H-furo[3,4-c]pyrrol-5 (3H)-yl)phenyl)acrylamide] | 25 to 50 |

Results, then the compound that gave them:

| GI50 [nM] | SMILES |
| --- | --- |
| 25 to 50 | C=CC(=O)Nc1cc(Nc2cc(Nc3ccccc3-c3ccn(C)n3)ncn2)c(OC)cc1N1CCOCC1 [Example 5, N-(4-methoxy-5-((6-((2-(1-methyl-1H-pyrazol-3-yl)phenyl)amino)pyrimidin-4-yl)amino)-2-morpholinophenyl)acrylamide] |
| 25 to 50 | C=CC(=O)Nc1cc(Nc2ncc(Cl)c(Nc3ccccc3-c3ccn(C)n3)n2)c(OC)cc1N1CC[C@H](N(C)C)C1 [Example 33, (S)-N-(5-((5-chloro-4-((2-(1-methyl-1H-pyrazol-3-yl)phenyl)amino)pyrimidin-2-yl)amino)-2-(3-(dimethylamino)pyrrolidin-1-yl)-4-methoxyphenyl)acrylamide] |
| 25 to 50 | C=CC(=O)Nc1cc(Nc2ncc(C(=O)OC(C)C)c(Nc3ccccc3-c3ccn(C)n3)n2)c(OC)cc1N(C)[C@@H]1CCN(C)C1 [Example 27, Isopropyl(R)-2-((5-acrylamido-2-methoxy-4-(methyl(1-methylpyrrolidin-3-yl)amino)phenyl)amino)-4-((2-(1-methyl-1H-pyrazol-3-yl)phenyl)amino)pyrimidin-5-carboxylate] |
| < 25 | C=CC(=O)Nc1cc(Nc2ncc(Cl)c(Nc3ccccc3-c3ccn(C)n3)n2)c(OC)cc1N(C)CCN(C)C [Example 29, N-(5-((5-chloro-4-((2-(1-methyl-1H-pyrazol-3-yl)phenyl)amino)pyrimidin-2-yl)amino)-2-((2-(dimethylamino)ethyl)(methyl)amino)-4-methoxyphenyl)acrylamide] |
| 25 to 50 | C=CC(=O)Nc1cc(Nc2ncc(C(=O)OC(C)C)c(Nc3ccccc3-c3ccn(C)n3)n2)c(OC)cc1N1CC[C@H](N(C)C)C1 [Example 25, Isopropyl(S)-2-((5-acrylamido-4-(3-(dimethylamino)pyrrolidin-1-yl)-2-methoxyphenyl)amino)-4-((2-(1-methyl-1H-pyrazol-3-yl)phenyl)amino)pyrimidin-5-carboxylate] |
| 25 to 50 | C=CC(=O)Nc1cc(Nc2ncc(C#N)c(Nc3ccccc3-c3ccn(C)n3)n2)c(OC)cc1N(C)CCN(C)C [Example 13, N-(5-((5-cyano-4-((2-(1-methyl-1H-pyrazol-3-yl)phenyl)amino)pyrimidin-2-yl)amino)-2-((2-(dimethylamino)ethyl)(methyl)amino)-4-methoxyphenyl)acrylamide] |
| 25 to 50 | C=CC(=O)Nc1cc(Nc2ncc(C(=O)OC(C)C)c(Nc3ccccc3-c3ccn(C)n3)n2)c(OC)cc1N1CC[C@@H](N(C)C)C1 [Example 26, Isopropyl(R)-2-((5-acrylamido-4-(3-(dimethylamino)pyrrolidin-1-yl)-2-methoxyphenyl)amino)-4-((2-(1-methyl-1H-pyrazol-3-yl)phenyl)amino)pyrimidin-5-carboxylate] |
| 25 to 50 | C=CC(=O)Nc1cc(Nc2ncc(Cl)c(Nc3ccccc3-c3ccn(C)n3)n2)c(OC)cc1N1CCN(C)CC1 [Example 31, N-(5-((5-chloro-4-((2-(1-methyl-1H-pyrazol-3-yl)phenyl)amino)pyrimidin-2-yl)amino)-4-methoxy-2-(4-methylpiperizin-1-yl)phenyl)acrylamide] |
| 25 to 50 | C=CC(=O)Nc1cc(Nc2ncc(Cl)c(Nc3ccccc3-c3ccn(C)n3)n2)c(OC)cc1N(C)[C@H]1CCN(C)C1 [Example 36, (S)-N-(5-((5-chloro-4-((2-(1-methyl-1H-pyrazol-3-yl)phenyl)amino)pyrimidin-2-yl)amino)-4-methoxy-2-(methyl(1-methylpyrrolidin-3-yl)amino)phenyl)acrylamide] |
| 25 to 50 | C=CC(=O)Nc1cc(Nc2ncc(C(=O)OC(C)C)c(Nc3ccccc3-c3ccn(C)n3)n2)c(OC)cc1N(C)[C@H]1CCN(C)C1 [Example 28, Isopropyl(S)-2-((5-acrylamido-2-methoxy-4-(methyl(1-methylpyrrolidin-3-yl)amino)phenyl)amino)-4-((2-(1-methyl-1H-pyrazol-3-yl)phenyl)amino)pyrimidin-5-carboxylate] |
| 25 to 50 | C=CC(=O)Nc1cc(Nc2ncc(Cl)c(Nc3ccccc3-c3ccn(C)n3)n2)c(OC)cc1N1CCOCC1 [Example 32, N-(5-((5-chloro-4-((2-(1-methyl-1H-pyrazol-3-yl)phenyl)amino)pyrimidin-2-yl)amino)-4-methoxy-2-morpholinophenyl)acrylamide] |
| 25 to 50 | C=CC(=O)Nc1cc(Nc2ncc(C(=O)OC(C)C)c(Nc3ccccc3-c3ccn(C)n3)n2)c(OC)cc1N1CCN(C)CC1 [Example 23, Isopropyl 2-((5-acrylamido-2-methoxy-4-(4-methylpiperizin-l-yl)phenyl)amino)-4-((2-(1-methyl-1H-pyrazol-3-yl)phenyl)amino)pyrimidin-5-carboxylate] |
| 25 to 50 | C=CC(=O)Nc1cc(Nc2cc(Nc3ccccc3-c3ccn(C)n3)ncn2)c(OC)cc1N1CCN(C)CC1 [Example 4, N-(4-methoxy-5-((6-((2-(1-methyl-1H-pyrazol-3-yl)phenyl)amino)pyrimidin-4-yl)amino)-2-(4-methylpiperizin-1-yl)phenyl)acrylamide] |
| 25 to 50 | C=CC(=O)Nc1cc(Nc2ncc(Cl)c(Nc3ccccc3-c3ccn(C)n3)n2)c(OC)cc1N(C)[C@@H]1CCN(C)C1 [Example 35, (R)-N-(5-((5-chloro-4-((2-(1-methyl-1H-pyrazol-3-yl)phenyl)amino)pyrimidin-2-yl)amino)-4-methoxy-2-(methyl(1-methylpyrrolidin-3-yl)amino)phenyl)acrylamide] |
| 25 to 50 | C=CC(=O)Nc1cc(Nc2ncc(Cl)c(Nc3ccccc3-c3ccn(C)n3)n2)c(OC)cc1N1CC[C@@H](N(C)C)C1 [Example 34, (R)-N-(5-((5-chloro-4-((2-(1-methyl-1H-pyrazol-3-yl)phenyl)amino)pyrimidin-2-yl)amino)-2-(3-(dimethylamino)pyrrolidin-1-yl)-4-methoxyphenyl)acrylamide] |
